Read-outs that look alike come from different tables or passages of the source.
Legend:
Type in all cases: cell-based, human
HTT [1] = experiment: Splicing RT-qPCR assay, HTT mRNA canonical junction (CJ) and alternative junction (AJ); settings: for AC50: increase in AJ mRNA
How it was run: (§1)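 Splice switching is measured in A673 or K562 cells after 24 h compound exposure (maximum 10 uM, 3-fold steps). Canonical and alternative junction mRNA levels are quantified by RT-qPCR relative to housekeeper and DMSO.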

MYB [2] = experiment: Splicing RT-qPCR assay, MYB mRNA canonical junction (CJ) and alternative junction (AJ); settings: for AC50: increase in AJ mRNA
How it was run: as §1

SMN2 = experiment: Splicing RT-qPCR panel, SMN2 canonical junction (CJ) mRNA; settings: RT-qPCR panel, canonical junction mRNA, compound concentration having 50% response in CJ decrease, read-out: SMN2 IC50 (decrease in CJ mRNA levels)
How it was run: as §1

Target C [3] = experiment: Splicing RT-qPCR panel, Target C canonical junction (CJ) mRNA; settings: RT-qPCR panel, canonical junction mRNA, compound concentration having 50% response in CJ decrease, read-out: Target C IC50 (decrease in CJ mRNA levels)
How it was run: as §1

MYB [4] = experiment: HiBiT protein abundance assay, MYB; settings: Table 13A, modified K562 cells
How it was run: (§2)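 Target abundance was measured as HiBiT luminescence after 24 h compound treatment of tagged K562 cells. Responses were normalized between unmodified K562 and DMSO-treated tagged cells, and IC50 taken at the 50% level of a 4PL curve.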

HTT [5] = experiment: HiBiT protein abundance assay, HTT; settings: Table 13A, modified K562 cells
How it was run: as §2

Target C [6] = experiment: HiBiT protein abundance assay, Target C; settings: Table 13A, modified K562 cells
How it was run: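 Cells carrying the HiBiT knock-in were plated at 10000 cells/well, dosed with compound (10-point, 3-fold, 10 μM top final) and incubated 24 hours at 37 °C. Lytic reagent was then added and luminescence read. Percent response fed a 4PL fit for IC50.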

[7] = Homo sapiens, 24 h, decrease in CJ mRNA, A673 or K562 cells, 24 hours treatment, RT-qPCR, read-out: HTT CJ IC50
[8] = Homo sapiens, 24 h, A673 or K562 cells, 24 hours treatment, RT-qPCR
[9] = Homo sapiens, RT-qPCR panel, canonical junction mRNA, compound concentration having 50% response in CJ decrease, read-out: HTT IC50 (decrease in CJ mRNA levels)
[10] = Homo sapiens, 24 h, decrease in CJ mRNA, A673 or K562 cells, 24 hours treatment, RT-qPCR, read-out: MYB CJ IC50
[11] = Homo sapiens, RT-qPCR panel, canonical junction mRNA, compound concentration having 50% response in CJ decrease, read-out: MYB IC50 (decrease in CJ mRNA levels)

Row | Compound | IC50 (HTT [1]; [7]) [µM] | AC50 (HTT [1]; [8]) [µM] | IC50 (HTT [1]; [9]) [µM] | IC50 (MYB [2]; [10]) [µM] | AC50 (MYB [2]; [8]) [µM] | IC50 (MYB [2]; [11]) [µM] | IC50 (SMN2; Homo sapiens) [µM] | IC50 (Target C [3]; Homo sapiens) [µM] | IC50 (MYB [4]; Homo sapiens, K562, 24 h) [µM] | IC50 (HTT [5]; Homo sapiens, K562, 24 h) [µM] | IC50 (Target C [6]; Homo sapiens, K562, 24 h) [µM] | IC50 (HTT [1]; RT-qPCR panel, canonical junction mRNA, compound concentration having 50% response in CJ decrease, read-out: HTT IC50 (decrease in CJ mRNA levels)) [µM] | IC50 (HTT [1]; decrease in CJ mRNA, A673 or K562 cells, 24 hours treatment, RT-qPCR, read-out: HTT CJ IC50) [µM] | IC50 (MYB [2]; RT-qPCR panel, canonical junction mRNA, compound concentration having 50% response in CJ decrease, read-out: MYB IC50 (decrease in CJ mRNA levels)) [µM] | IC50 (MYB [2]; decrease in CJ mRNA, A673 or K562 cells, 24 hours treatment, RT-qPCR, read-out: MYB CJ IC50) [µM] | IC50 (SMN2) [µM] | IC50 (Target C [3]) [µM] | IC50 (MYB [4]; 24 hours) [µM] | IC50 (HTT [5]; 24 hours) [µM] | IC50 (Target C [6]; 24 hours) [µM]
1 | CN(c1ccc(-c2ccc(-c3cn[nH]c3)c3ncsc23)nn1)[C@H]1C[C@H]2COC[C@@H](C1)N2 [Compound 355] | 1 to 10 | 1 to 10 | 1 to 10 | 1 to 10 | 1 to 10 | 1 to 10 | 1 to 10 | 1 to 10 | 1 to 10 | 1 to 10 | 1 to 10 | – | – | – | – | – | – | – | – | –
2 | c1nc2c(-c3cn[nH]c3)ccc(-c3ccc(O[C@@H]4C[C@H]5COC[C@@H](C4)N5)nn3)c2s1 [Compound 357] | – | < 0.1 | < 0.1 | 0.1 to 1 | 0.1 to 1 | 0.1 to 1 | < 0.1 | 0.1 to 1 | 0.1 to 1 | < 0.1 | 0.1 to 1 | – | – | – | – | – | – | – | – | –
3 | c1nc2c(-c3cn[nH]c3)ccc(-c3ccc(O[C@H]4C[C@H]5COC[C@@H](C4)N5)nn3)c2s1 [Compound 358] | > 10 | > 10 | > 10 | 1 to 10 | > 10 | 1 to 10 | > 10 | > 10 | 1 to 10 | > 10 | > 10 | – | – | – | – | – | – | – | – | –
4 | CCc1n[nH]c2c(-c3ccc(N(C)[C@@H]4C[C@H]5CC[C@@H](C4)N5)nn3)ccc(-c3cnn(C)n3)c12 [Compound 359, (1R,3S,5S)-N-{6-[3-ethyl-4-(2-methyl-1,2,3-triazol-4-yl)-1H-indazol-7-yl]pyridazin-3-yl}-N-methyl-8-azabicyclo[3.2.1]octan-3-amine] | > 10 | > 10 | > 10 | > 10 | > 10 | > 10 | > 10 | > 10 | 1 to 10 | > 10 | > 10 | – | – | – | – | – | – | – | – | –
5 | c1nc2c(-c3cn[nH]c3)ccc(-c3ccc(N(C4CC4)C4C[C@H]5CC[C@@H](C4)N5)nn3)c2s1 (stereo partly drawn) [Compound 360, (exo)-N-cyclopropyl-N-{6-[4-(1H-pyrazol-4-yl)-1,3-benzothiazol-7-yl]pyridazin-3-yl}-8-azabicyclo [3.2.1] octan-3-amine] | – | < 0.1 | < 0.1 | 0.1 to 1 | 0.1 to 1 | 0.1 to 1 | 0.1 to 1 | 0.1 to 1 | 0.1 to 1 | 0.1 to 1 | < 0.1 | – | – | – | – | – | – | – | – | –
6 | COc1cc(-c2ccc(-c3ccc(N(C)[C@@H]4C[C@H]5CC[C@@H](C4)N5)nn3)c3[nH]ncc23)ccn1 [Compound 364, (exo)-N-{6-[4-(2-methoxypyridin-4-yl)-1H-indazol-7-yl]pyridazin-3-yl}-N-methyl-8-azabicyclo[3.2.1]octan-3-amine] | – | < 0.1 | < 0.1 | 0.1 to 1 | < 0.1 | 0.1 to 1 | < 0.1 | 0.1 to 1 | < 0.1 | < 0.1 | < 0.1 | – | – | – | – | – | – | – | – | –
7 | CN(c1ccc(-c2ccc(-c3ccc(=O)n(C)c3)c3cn[nH]c23)nn1)[C@@H]1C[C@H]2CC[C@@H](C1)N2 [Compound 365, 5-(7-{6-[(exo)-8-azabicyclo[3.2.1]octan-3-yl(methyl)amino]pyridazin-3-yl}-1H-indazol-4-yl)-1-methylpyridin-2-one] | 1 to 10 | 1 to 10 | 1 to 10 | > 10 | > 10 | > 10 | 1 to 10 | 1 to 10 | 1 to 10 | 1 to 10 | 1 to 10 | – | – | – | – | – | – | – | – | –
8 | FC1(F)CC2CC(Oc3ccc(-c4ccc(-c5cn[nH]c5)c5cn[nH]c45)nn3)CC1N2 (centres unmarked) [Compound 374, 7-[6-({6,6-difluoro-8-azabicyclo[3.2.1]octan-3-yl}oxy)pyridazin-3-yl]-4-(1H-pyrazol-4-yl)-1H-indazole] | – | – | – | – | – | – | – | – | – | – | – | > 10 | > 10 | > 10 | > 10 | > 10 | > 10 | > 10 | > 10 | > 10
9 | Cc1n[nH]c2c(-c3ccc(N(C)[C@@H]4C[C@H]5CC[C@@H](C4)N5)nn3)ccc(-c3cnn(C)n3)c12 [Compound 375, (1R,3S,5S)-N-methyl-N-{6-[3-methyl-4-(2-methyl-1,2,3-triazol-4-yl)-1H-indazol-7-yl]pyridazin-3-yl}-8-azabicyclo[3.2.1]octan-3-amine] | > 10 | > 10 | > 10 | > 10 | > 10 | > 10 | > 10 | > 10 | > 10 | > 10 | > 10 | – | – | – | – | – | – | – | – | –
10 | CC(C)(C)NC1CCN(c2ccc(-c3ccc(-n4cccn4)c4[nH]ncc34)nn2)C1 (centres unmarked) [Compound 380, N-tert-butyl-1-{6-[7-(pyrazol-1-yl)-1H-indazol-4-yl]pyridazin-3-yl}pyrrolidin-3-amine] | 1 to 10 | 1 to 10 | 1 to 10 | 1 to 10 | 1 to 10 | 1 to 10 | 0.1 to 1 | 1 to 10 | 1 to 10 | 1 to 10 | 1 to 10 | – | – | – | – | – | – | – | – | –
11 | CCNC1CCN(c2ccc(-c3ccc(-c4cn[nH]c4)c4ncsc34)nn2)CC1 [Compound 410, N-ethyl-1-[6-[4-(1H-pyrazol-4-yl)-1,3-benzothiazol-7-yl]pyridazin-3-yl]piperidin-4-amine] | > 10 | > 10 | > 10 | 1 to 10 | > 10 | 1 to 10 | 1 to 10 | > 10 | 1 to 10 | 1 to 10 | 1 to 10 | – | – | – | – | – | – | – | – | –
